Patent US10065970B2 (Genentech, Inc., priority 2015, dated 2018)

Target: PI3Kα (alpha) (Homo sapiens (Human), UniProt P42336)
Assay: p110α (alpha) PI3K Binding Assay (ADP-Glo lipid kinase reaction)
Format: biochemical
Settings: PI3K alpha 0.2 nM, ATP 40 μM, PIP2:3PS 50 μM, 120 min, room temperature; Ki by Morrison Equation; read-out: PI3Kα-(alpha) ATP (Ki) micromolar
Summary of the method: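 Enzyme with PIP2:3PS lipid substrate and ATP/MgCl2 in 50 mM HEPES, 50 mM NaCl, 3 mM MgCl2, 0.01% BSA, 1% DMSO, 120 min at room temperature. ADP formed detected by ADP-Glo luminescence. Ki from 10-point dose-response curves via the Morrison equation.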

PI3Kα (alpha), sequence (P42336 whole entry): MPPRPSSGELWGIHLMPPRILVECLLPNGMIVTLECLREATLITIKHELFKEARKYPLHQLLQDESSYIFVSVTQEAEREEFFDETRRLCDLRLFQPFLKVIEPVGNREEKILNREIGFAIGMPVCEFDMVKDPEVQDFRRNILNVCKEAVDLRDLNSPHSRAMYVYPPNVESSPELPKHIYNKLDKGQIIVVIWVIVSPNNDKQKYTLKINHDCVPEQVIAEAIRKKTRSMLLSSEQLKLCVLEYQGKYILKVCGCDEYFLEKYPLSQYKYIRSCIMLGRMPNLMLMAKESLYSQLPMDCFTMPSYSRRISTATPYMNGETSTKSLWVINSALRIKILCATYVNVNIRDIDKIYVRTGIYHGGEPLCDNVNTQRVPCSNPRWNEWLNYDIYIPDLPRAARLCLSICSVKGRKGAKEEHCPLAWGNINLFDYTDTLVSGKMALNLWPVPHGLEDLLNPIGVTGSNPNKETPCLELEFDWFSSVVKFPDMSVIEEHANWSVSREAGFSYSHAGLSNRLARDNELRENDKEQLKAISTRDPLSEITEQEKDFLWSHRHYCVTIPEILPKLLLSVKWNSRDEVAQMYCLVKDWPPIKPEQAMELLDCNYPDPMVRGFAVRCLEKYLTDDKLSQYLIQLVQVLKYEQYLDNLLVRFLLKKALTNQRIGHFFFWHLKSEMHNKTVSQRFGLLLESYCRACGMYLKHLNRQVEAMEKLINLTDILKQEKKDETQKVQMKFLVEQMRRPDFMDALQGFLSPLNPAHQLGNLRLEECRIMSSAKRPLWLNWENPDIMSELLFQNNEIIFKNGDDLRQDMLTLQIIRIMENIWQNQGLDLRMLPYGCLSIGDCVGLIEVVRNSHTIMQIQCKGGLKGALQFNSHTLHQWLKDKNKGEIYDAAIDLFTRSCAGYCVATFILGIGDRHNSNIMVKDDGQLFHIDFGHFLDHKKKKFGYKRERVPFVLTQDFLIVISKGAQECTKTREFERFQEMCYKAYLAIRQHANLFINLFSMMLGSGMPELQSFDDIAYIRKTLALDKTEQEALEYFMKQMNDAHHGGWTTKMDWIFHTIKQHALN
PI3Kα (alpha), sequence (P27986 whole entry partner): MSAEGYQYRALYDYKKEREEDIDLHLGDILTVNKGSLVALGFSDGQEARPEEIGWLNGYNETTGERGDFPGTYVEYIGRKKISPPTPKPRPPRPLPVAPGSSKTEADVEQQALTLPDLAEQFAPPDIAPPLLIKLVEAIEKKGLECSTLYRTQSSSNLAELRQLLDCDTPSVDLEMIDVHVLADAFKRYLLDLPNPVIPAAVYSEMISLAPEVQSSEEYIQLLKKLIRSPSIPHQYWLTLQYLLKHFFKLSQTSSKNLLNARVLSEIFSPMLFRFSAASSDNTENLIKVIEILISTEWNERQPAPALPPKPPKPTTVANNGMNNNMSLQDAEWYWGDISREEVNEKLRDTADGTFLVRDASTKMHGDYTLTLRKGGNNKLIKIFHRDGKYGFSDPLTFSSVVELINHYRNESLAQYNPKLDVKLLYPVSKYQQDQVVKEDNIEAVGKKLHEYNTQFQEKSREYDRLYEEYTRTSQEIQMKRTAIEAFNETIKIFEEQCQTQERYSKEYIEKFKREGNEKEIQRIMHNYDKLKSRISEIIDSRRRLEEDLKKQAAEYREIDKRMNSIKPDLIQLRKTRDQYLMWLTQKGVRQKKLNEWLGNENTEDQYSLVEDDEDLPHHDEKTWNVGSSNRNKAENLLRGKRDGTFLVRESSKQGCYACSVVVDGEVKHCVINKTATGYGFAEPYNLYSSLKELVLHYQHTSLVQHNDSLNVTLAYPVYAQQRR

Row | SMILES | Ki
1 | OCc1cnc2cc(-c3nc4cc(Br)cc5c4n3CCCO5)ccc2n1 [Example 198, (6-(4-Bromo-8,9-dihydro-7H-6-oxa-2,9a-diazabenzo[cd]azulen-1-yl)quinoxalin-2-yl)methanol] | 677000 pM
2 | NC(=O)[C@@H]1CCCN1c1cc2c3c(c1)nc(-c1ccc4[nH]cnc4c1)n3CCCO2 [Example 199, (S)-1-(1-(1H-Benzo[d]imidazol-5-yl)-8,9-dihydro-7H-6-oxa-2,9a-diazabenzo[cd]azulen-4-yl)pyrrolidine-2-carboxamide] | 33200 pM
3 | NC(=O)[C@@H](Nc1cc2c3c(c1)nc(-c1ccc4nc(N)nn4c1)n3CCCO2)C1CC1 [Example 201, (S)-2-((1-(2-Amino-[1,2,4]triazolo[1,5-a]pyridin-6-yl)-8,9-dihydro-7H-6-oxa-2,9a-diazabenzo[cd]azulen-4-yl)amino)-2-cyclopropylacetamide] | 717 pM
4 | C[C@H](Oc1cc2c3c(c1)nc(-c1ccc4oc(N)nc4c1)n3CCCCO2)C(N)=O [Example 204, (S)-2-((1-(2-Aminobenzo[d]oxazol-5-yl)-7,8,9,10-tetrahydro-6-oxa-2,10a-diazacycloocta[cd]inden-4-yl)oxy)propanamide] | < 20 pM
5 | Cc1cc(-c2nc3cc(N[C@H](C(N)=O)C4CC4)cc4c3n2CCCO4)cc2nc(N)oc12 [Example 205, (S)-2-((1-(2-Amino-7-methylbenzo[d]oxazol-5-yl)-8,9-dihydro-7H-6-oxa-2,9a-diazabenzo[cd]azulen-4-yl)amino)-2-cyclopropylacetamide] | 191 pM
6 | NC(=O)[C@@H]1CCCN1c1cc2c3c(c1)nc(-c1ccnc4[nH]nnc14)n3CCCO2 [Example 206, (S)-1-(1-(3H-[1,2,3]Triazolo[4,5-b]pyridin-7-yl)-8,9-dihydro-7H-6-oxa-2,9a-diazabenzo[cd]azulen-4-yl)pyrrolidine-2-carb oxamide] | 25900 pM
7 | NC(=O)[C@@H](Nc1cc2c3c(c1)nc(-c1ccc4nc(N)oc4c1)n3CCCO2)C1CC1 [Example 207, (S)-2-((1-(2-Aminobenzo[d]oxazol-6-yl)-8,9-dihydro-7H-6-oxa-2,9a-diazabenzo[cd]azulen-4-yl)amino)-2-cyclopropylacetamide] | 988 pM
8 | NC(=O)[C@@H](Nc1cc2c3c(c1)nc(-c1ccc4oc(N)nc4c1)n3CCO2)C1CC1 [Example 208, (S)-2-((2-(2-Aminobenzo[d]oxazol-5-yl)-3,4-dihydro-5-oxa-1,2a-diazaacenaphthylen-7-yl)amino)-2-cyclopropylacetamide] | < 20 pM
9 | NC(=O)[C@@H](Nc1cc2c3c(c1)nc(-c1cc(Cl)c4oc(N)nc4c1)n3CCCO2)C1CC1 [Example 209, (S)-2-((1-(2-Amino-7-chlorobenzo[d]oxazol-5-yl)-8,9-dihydro-7H-6-oxa-2,9a-diazabenzo[cd]azulen-4-yl)amino)-2-cyclopropylacetamide] | 95 pM
10 | NC(=O)[C@@H](Nc1cc2c3c(c1)nc(-c1cnn(C4COC4)c1)n3CCCO2)C1CC1 [Example 210, (S)-2-Cyclopropyl-2-((1-(1-(oxetan-3-yl)-1H-pyrazol-4-yl)-8,9-dihydro-7H-6-oxa-2,9a-diazabenzo[cd]azulen-4-yl)amino)acetamide] | 285000 pM
11 | NC(=O)[C@@H](Nc1cc2c3c(c1)nc(-c1cnn(CCO)c1)n3CCCO2)C1CC1 [Example 211, (S)-2-Cyclopropyl-2-((1-(1-(2-hydroxyethyl)-1H-pyrazol-4-yl)-8,9-dihydro-7H-6-oxa-2,9a-diazabenzo[cd]azulen-4-yl)amino)acetamide] | 815000 pM
12 | NC(=O)[C@@H](Nc1cc2c3c(c1)nc(-c1cn[nH]c1)n3CCCO2)C1CC1 [Example 212, (S)-2-((1-(1H-Pyrazol-4-yl)-8,9-dihydro-7H-6-oxa-2,9a-diazabenzo[cd]azulen-4-yl)amino)-2-cyclopropylacetamide] | 148000 pM
13 | COc1ccc(-n2nc3cc(N[C@H](C(N)=O)C4CC4)cc4c3c2CCCO4)cn1 [Example 213, (S)-2-Cyclopropyl-2-((1-(6-methoxypyridin-3-yl)-1,7,8,9-tetrahydrooxepino[4,3,2-cd]indazol-4-yl)amino)acetamide] | 23800 pM
14 | NC(=O)[C@@H](Nc1cc2c3c(c1)nc(-c1ccc4nc(N)sc4c1)n3CCCCO2)C1CC1 [Example 214, (S)-2-((1-(2-Aminobenzo[d]thiazol-6-yl)-7,8,9,10-tetrahydro-6-oxa-2,10a-diazacycloocta[cd]inden-4-yl)amino)-2-cyclopropylacetamide] | < 20 pM
15 | NC(=O)[C@@H](Nc1cc2c3c(c1)nc(-c1cc(F)c4nccnc4c1)n3CCCO2)C1CC1 [Example 215, (S)-2-Cyclopropyl-2-((1-(8-fluoroquinoxalin-6-yl)-8,9-dihydro-7H-6-oxa-2,9a-diazabenzo[cd]azulen-4-yl)amino)acetamide] | 424 pM
16 | CC[C@H](C(N)=O)n1cc(-c2cc3c4c(c2)nc(-c2ccc5oc(N)nc5c2)n4CCCO3)cn1 [Example 216, (R)-2-(4-(1-(2-Aminobenzo[d]oxazol-5-yl)-8,9-dihydro-7H-6-oxa-2,9a-diazabenzo[cd]azulen-4-yl)-1H-pyrazol-1-yl)butanamide] | 214 pM
17 | CC[C@@H](C(N)=O)n1cc(-c2cc3c4c(c2)nc(-c2ccc5oc(N)nc5c2)n4CCCO3)cn1 [Example 217, (S)-2-(4-(1-(2-Aminobenzo[d]oxazol-5-yl)-8,9-dihydro-7H-6-oxa-2,9a-diazabenzo[cd]azulen-4-yl)-1H-pyrazol-1-yl)butanamide] | 298 pM
18 | C[C@H](C(N)=O)n1cc(-c2cc3c4c(c2)nc(-c2ccc5oc(N)nc5c2)n4CCCO3)cn1 [Example 218, (R)-2-(4-(1-(2-Aminobenzo[d]oxazol-5-yl)-8,9-dihydro-7H-6-oxa-2,9a-diazabenzo[cd]azulen-4-yl)-1H-pyrazol-1-yl)propanamide] | 143 pM
19 | C[C@@H](C(N)=O)n1cc(-c2cc3c4c(c2)nc(-c2ccc5oc(N)nc5c2)n4CCCO3)cn1 [Example 219, (S)-2-(4-(1-(2-Aminobenzo[d]oxazol-5-yl)-8,9-dihydro-7H-6-oxa-2,9a-diazabenzo[cd]azulen-4-yl)-1H-pyrazol-1-yl)propanamide] | 242 pM
20 | NC(=O)[C@@H]1CCCN1c1cc2c3c(c1)nc(-c1ccc4c(c1)N1CCC(=O)N=C1O4)n3CCCO2 [Example 220, (S)-1-(1-(2-Oxo-3,4-dihydro-2H-benzo[4,5]oxazolo[3,2-a]pyrimidin-7-yl)-8,9-dihydro-7H-6-oxa-2,9a-diazabenzo[cd]azulen-4-yl)pyrrolidine-2-carboxamide] | 2920 pM
21 | NC(=O)[C@@H]1CCCN1c1cc2c3c(c1)nc(-c1ccc(-c4nc[nH]n4)cc1)n3CCCO2 [Example 221, (S)-1-(1-(4-(1H-1,2,4-Triazol-3-yl)phenyl)-8,9-dihydro-7H-6-oxa-2,9a-diazabenzo[cd]azulen-4-yl)pyrrolidine-2-carboxamide] | 237 pM
22 | NC(=O)[C@@H]1CCCN1c1cc2c3c(c1)nc(-c1ccc(-c4nc[nH]n4)c(Cl)c1)n3CCCO2 [Example 222, (S)-1-(1-(3-Chloro-4-(1H-1,2,4-triazol-3-yl)phenyl)-8,9-dihydro-7H-6-oxa-2,9a-diazabenzo[cd]azulen-4-yl)pyrrolidine-2-carb oxamide] | 261 pM
23 | NC(=O)[C@@H]1CCCN1c1cc2c3c(c1)nc(-c1ccc(-c4cn[nH]c4)nc1)n3CCCO2 [Example 223, (S)-1-(1-(6-(1H-Pyrazol-4-yl)pyridin-3-yl)-8,9-dihydro-7H-6-oxa-2,9a-diazabenzo[cd]azulen-4-yl)pyrrolidine-2-carboxamide] | 74600 pM
24 | CCc1cc(-c2nc3cc(N4CCC[C@H]4C(N)=O)cc4c3n2CCCO4)cc2nc(N)oc12 [Example 224, (S)-1-(1-(2-Amino-7-ethylbenzo[d]oxazol-5-yl)-8,9-dihydro-7H-6-oxa-2,9a-diazabenzo[cd]azulen-4-yl)pyrrolidine-2-carb oxamide] | 1620 pM
25 | CCc1cc(-c2nc3cc(N[C@H](C(N)=O)C4CC4)cc4c3n2CCCO4)cc2nc(N)oc12 [Example 225, (S)-2-((1-(2-Amino-7-ethylbenzo[d]oxazol-5-yl)-8,9-dihydro-7H-6-oxa-2,9a-diazabenzo[cd]azulen-4-yl)amino)-2-cyclopropylacetamide] | 431 pM
26 | NC(=O)[C@@H]1CCCN1c1cc2c3c(c1)nc(-c1ccc(-c4nc[nH]n4)cn1)n3CCCO2 [Example 226, (S)-1-(1-(5-(1H-1,2,4-Triazol-3-yl)pyridin-2-yl)-8,9-dihydro-7H-6-oxa-2,9a-diazabenzo[cd]azulen-4-yl)pyrrolidine-2-carb oxamide] | 393 pM
27 | NC(=O)[C@@H]1CCCN1c1cc2c3c(c1)nc(-c1ccc(-c4ncsn4)cc1)n3CCCO2 [Example 227, (S)-1-(1-(4-(1,2,4-Thiadiazol-3-yl)phenyl)-8,9-dihydro-7H-6-oxa-2,9a-diazabenzo[cd]azulen-4-yl)pyrrolidine-2-carboxamide] | 8210 pM
28 | NC(=O)[C@@H](Nc1cc2c3c(c1)nc(-c1ccn4nccc4n1)n3CCCO2)C1CC1 [Example 228, (S)-2-Cyclopropyl-2-((1-(pyrazolo[1,5-a]pyrimidin-5-yl)-8,9-dihydro-7H-6-oxa-2,9a-diazabenzo[cd]azulen-4-yl)amino)acetamide] | 2660 pM
29 | NC(=O)[C@@H]1CCCN1c1cc2c3c(c1)nc(-c1ccc(-c4cc[nH]n4)cc1)n3CCCO2 [Example 229, (S)-1-(1-(4-(1H-Pyrazol-3-yl)phenyl)-8,9-dihydro-7H-6-oxa-2,9a-diazabenzo[cd]azulen-4-yl)pyrrolidine-2-carboxamide] | 6880 pM
30 | NC(=O)[C@@H]1CCCN1c1cc2c3c(c1)nc(-c1ccc(N4CCNC4=O)cc1)n3CCCO2 [Example 234, (S)-1-(1-(4-(2-Oxoimidazolidin-1-yl)phenyl)-8,9-dihydro-7H-6-oxa-2,9a-diazabenzo[cd]azulen-4-yl)pyrrolidine-2-carboxamide] | 83700 pM
